Patent US6251894A, “1-(1,2-disubstituted piperidinyl)-4 (fused imidazole)-piperidine derivatives” (Janssen Pharmaceuticals N.V., priority 1995, dated 2001)
Read-outs that look alike come from different tables or passages of the source.

Tests used:
[1] = tested on: Substance P Induced Relaxation of the Pig Coronary Arteries; assay: Antagonism of substance P induced relaxation of the pig coronary arteries; conditions: 30 min incubation
Summary of the method: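 Inverted pig coronary artery segments, endothelium outside, in Krebs-Henseleit at 37 °C (95/5 O2/CO2), isometric tension recorded. After prostaglandin F2α (10^-5 M) precontraction, substance P (3×10^-10 M and 10^-9 M cumulative) relaxation repeated after 30 min incubation with test compound.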

[2] = tested on: Substance P Induced Plasma Extravasation; assay: Antagonism of substance P induced plasma extravasation in guinea-pigs; format: in vivo, guinea-pig; conditions: Cavia porcellus, 1 hour prior to substance P
Summary of the method: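 Female guinea-pigs; compound or solvent given s.c. or p.o. 1 h before substance P (2 mg/kg, femoral artery) plus Evans Blue (30 mg/kg). Blue colouring of nose, forepaws, conjunctiva scored at 10 min; trachea and urinary bladder at 30 min after CO2 sacrifice. Values are lowest active doses in mg/kg.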

[3] = test compound concentration 3 × 10^-9 (unit not given)
[4] = sc, 10 min, s.c., conjunctiva, read-out: lowest active dose (LAD), conjunctiva
[5] = sc, 10 min, s.c., forepaws, read-out: lowest active dose (LAD), forepaws
[6] = sc, 10 min, s.c., nose, read-out: lowest active dose (LAD), nose
[7] = sc, 0.5 h, s.c., trachea, read-out: lowest active dose (LAD), trachea
[8] = sc, 0.5 h, s.c., urinary bladder, read-out: lowest active dose (LAD), urinary bladder
[9] = test compound concentration 3 × 10^-8 (unit not given)

Structure (SMILES) | % inhibition of the response to 10^-9 M substance P [1, 3] | minimal effective dose [2, 4] | minimal effective dose [2, 5] | minimal effective dose [2, 6] | minimal effective dose [2, 7] | minimal effective dose [2, 8] | % inhibition of the response to 10^-9 M substance P [1, 9] | minimal effective dose ([2]; po, 10 min, p.o., conjunctiva, read-out: lowest active dose (LAD), conjunctiva) | minimal effective dose ([2]; po, 10 min, p.o., forepaws, read-out: lowest active dose (LAD), forepaws) | minimal effective dose ([2]; po, 10 min, p.o., nose, read-out: lowest active dose (LAD), nose) | minimal effective dose ([2]; po, 0.5 h, p.o., trachea, read-out: lowest active dose (LAD), trachea) | minimal effective dose ([2]; po, 0.5 h, p.o., urinary bladder, read-out: lowest active dose (LAD), urinary bladder)
O=C(c1cc(C(F)(F)F)cc(C(F)(F)F)c1)N1CC[C@@H](N2CCC(=C3c4ccsc4CCn4ccnc43)CC2)C[C@H]1Cc1ccccc1 (relative stereo) [Compound 18] | 39.8% | 2.5 mg/kg | 10 mg/kg | 10 mg/kg | 10 mg/kg | 10 mg/kg | – | – | – | – | – | –
Cn1ccc2c1CCn1ccnc1C2=C1CCN([C@H]2CCN(C(=O)c3cc(C(F)(F)F)cc(C(F)(F)F)c3)[C@@H](Cc3ccccc3)C2)CC1 (racemic) [Compound 3, (±)-cis-1-[3,5-bis(trifluoromethyl)benzoyl]-4-[4-(5,6,7,10-tetrahydro-7-methylimidazo[1,2-a]-pyrrolo[3,2-d]azepin-10-ylidene)-1-piperidinyl]-2-(phenylmethyl)piperidine] | 37.3% | 2.5 mg/kg | 2.5 mg/kg | 2.5 mg/kg | 10 mg/kg | 10 mg/kg | – | – | – | – | – | –
Cc1cc(C)cc(C(=O)N2CC[C@H](N3CCC(=C4c5ccccc5CCn5ccnc54)CC3)C[C@@H]2Cc2ccccc2)c1 (racemic) [Compound 1, (±)-cis-4-[4-(5,6-dihydro-11H-imidazo [2,1-b][3]benzazepin-11-ylidene)-1-piperidinyl]-1-(3,5-dimethylbenzoyl)-2-(phenylmethyl)piperidine] | – | 10 mg/kg | 10 mg/kg | 10 mg/kg | 10 mg/kg | 10 mg/kg | 52.3% | – | – | – | – | –
O=Cc1cnc2n1CCc1ccccc1C2=C1CCN([C@@H]2CCN(C(=O)c3cc(C(F)(F)F)cc(C(F)(F)F)c3)[C@@H](Cc3ccccc3)C2)CC1 (relative stereo) [Compound 16] | 98.9% | 2.5 mg/kg | 2.5 mg/kg | 2.5 mg/kg | 10 mg/kg | 10 mg/kg | – | – | – | – | – | –
Cc1cc(C)cc(C(=O)N2CC[C@H](N3CCC(=C4c5sccc5CCn5ccnc54)CC3)C[C@H]2Cc2ccccc2)c1 (relative stereo) [Compound 37] | 81.9% | 2.5 mg/kg | 2.5 mg/kg | 2.5 mg/kg | 10 mg/kg | 10 mg/kg | – | – | – | – | – | –
Cc1cc(C)cc(C(=O)N2CC[C@H](N3CCC(=C4c5ccccc5CCn5ccnc54)CC3)C[C@H]2Cc2ccccc2)c1 (relative stereo) [Compound 41] | 40.6% | 2.5 mg/kg | 10 mg/kg | 10 mg/kg | 10 mg/kg | 10 mg/kg | – | – | – | – | – | –
Cn1ccc2c1CCn1ccnc1C2=C1CCN([C@@H]2CCN(C(=O)c3cc(C(F)(F)F)cc(C(F)(F)F)c3)[C@@H](Cc3ccccc3)C2)CC1 (racemic) [Compound 2, (±)-trans-1-[3,5-bis(trifluoromethyl)benzoyl]-4-[4-(5,6,7,10-tetrahydro-7-methylimidazo[1,2-a]pyrrolo[3,2-d]azepin-10-ylidene)-1-piperidinyl]-2-(phenylmethyl)piperidine] | – | 0.16 mg/kg | 0.16 mg/kg | 0.16 mg/kg | 2.5 mg/kg | 2.5 mg/kg | 96.5% | – | – | – | – | –
O=C(c1cc(C(F)(F)F)cc(C(F)(F)F)c1)N1CC[C@@H](N2CCC(=C3c4ccccc4OCn4ccnc43)CC2)C[C@@H]1Cc1ccccc1 (relative stereo) [Compound 114] | 100.0% | 2.5 mg/kg | 10 mg/kg | 2.5 mg/kg | 10 mg/kg | 10 mg/kg | – | – | – | – | – | –
O=C(c1cc(C(F)(F)F)cc(C(F)(F)F)c1)N1CC[C@@H](N2CCC(C3c4ccccc4CCn4ccnc43)CC2)C[C@@H]1Cc1ccccc1 (stereo partly drawn) [Compound 8] | 82.3% | 10 mg/kg | 2.5 mg/kg | 2.5 mg/kg | 10 mg/kg | 10 mg/kg | – | – | – | – | – | –
Cc1cnc2n1CCc1ccccc1C2=C1CCN([C@H]2CCN(C(=O)c3cc(C(F)(F)F)cc(C(F)(F)F)c3)[C@H](Cc3ccccc3)C2)CC1 (relative stereo) [Compound 54] | 69.8% | 2.5 mg/kg | 2.5 mg/kg | 2.5 mg/kg | 2.5 mg/kg | 2.5 mg/kg | – | – | – | – | – | –
Cc1cc(C)cc(C(=O)N2CC[C@@H](N3CCC(=C4c5ccccc5CCn5c(C=O)cnc54)CC3)C[C@@H]2Cc2ccccc2)c1 (relative stereo) [Compound 25] | 100.0% | 2.5 mg/kg | 2.5 mg/kg | 2.5 mg/kg | 10 mg/kg | 10 mg/kg | – | – | – | – | – | –
O=C(c1cc(C(F)(F)F)cc(C(F)(F)F)c1)N1CC[C@@H](N2CCC(C3c4ccccc4Cn4c3nc3ccccc34)CC2)C[C@@H]1Cc1ccccc1 (mixture of isomers) [Compound 15, (±)-trans-1-[3,5-bis(trifluoromethyl)benzoyl]-4-[4-(6,11-dihydrobenzimidazo[1,2-b]isoquinolin-6-yl)-1-piperidinyl]-2-phenylmethyl)piperidine] | – | – | – | – | – | – | 95.4% | 10 mg/kg | 10 mg/kg | 10 mg/kg | 10 mg/kg | 10 mg/kg
Cc1cc(C)cc(C(=O)N2CC[C@@H](N3CCC(C4c5ccccc5CCn5ccnc54)CC3)C[C@@H]2Cc2ccccc2)c1 (stereo partly drawn) [Compound 27] | 5.1% | 2.5 mg/kg | 2.5 mg/kg | 2.5 mg/kg | 10 mg/kg | 2.5 mg/kg | – | – | – | – | – | –
Cc1cc(C)cc(C(=O)N2CC[C@@H](N3CCC(=C4c5ccsc5C(=O)Cn5ccnc54)CC3)C[C@@H]2Cc2ccccc2)c1 (relative stereo) [Compound 112] | 66.7% | 0.63 mg/kg | 0.63 mg/kg | 0.63 mg/kg | 10 mg/kg | 2.5 mg/kg | – | – | – | – | – | –
